In publication PMC3460821, “SIRT1 Activators Suppress Inflammatory Responses through Promotion of p65 Deacetylation and Inhibition of NF-κB Activity” (PLoS ONE, 2012):

Tested on: SIRT1
Assay: cells
Parameters: species or system U2OS or HEK 293; AlphaScreen of acetylated K310-p65 in lysates of cells co-expressing p300 and HA-p65; reduction by SIRT1 activators
Conditions: reduction of cellular acetylated p65 (K310); read-out: Cellular p65 acetylation assay IC50
Protocol: Acetylated p65 protein in cell lysates was measured by an AlphaScreen format based assay (Bosse et al., Principles of AlphaScreen. PerkinElmer Application Note (2001)). A sandwich comprised of a biotinylated anti-HA antibody (Roche, 12158167001) bound to streptavidin coated donor beads (PerkinElmer, 6760617M) and an anti-acetylated K310-p65 antibody (Abcam, ab19870) interacting with protein A coated acceptor beads was assembled to detect light emission upon acetylated HA-p65 protein binding to the donor and acceptor beads. A similar AlphaScreen assay to measure total HA-tagged p65 protein was also developed by replacing the anti-acetylated K310-p65 antibody with an anti-p65 antibody (Santa Cruz, sc-109). The level of acetylated p65 protein was normalized against the total HA-tagged p65 protein measured in parallel for the same sample. We developed a high throughput cellular assay to examine the ability of compounds to promote SIRT1-mediated deacetylation of p65 protein in cells. This assay system uses BacMam virus transduction in U2OS or HEK 293 cells to co-express p300 HAT and an HA-tagged p65 NF-κB subunit to enable detection of acetylated p65. […] Similarly, pharmacological inhibition of SIRT1 by a specific SIRT1 inhibitor, EX-527 [46], increased the levels of acetylated p65 protein (Figure 3D). […] STACs that were identified from biochemical assays (File S1) were evaluated in the acetylated p65 cellular assay. […] The compounds were tested for the inhibition of histone acetyltransferases (HATs) since this could result in a reduction of acetylated p65 that could not be distinguished from an enhancement of deacetylation.

Compound: O=C(Nc1nccs1)c1cccc2[nH]c(-c3ccccc3OCCN3CCOCC3)nc12 [SRTCX1003]
- IC50: 1420 nM

Compound: O=C(Nc1nccs1)c1cccc2[nH]c(-c3ccc4c(c3)OC(F)(F)O4)nc12 [SRTCZ1001]
- IC50: > 25000 nM

Compound: O=C(Nc1nccs1)c1cccc2[nH]c(-c3cccc(N4CCOCC4)c3)nc12 [SRTCX1002]
- IC50: 840 nM
